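Five compound concentrations were applied to cells in 96-well plates for 48 hours; endpoints were derived by simple linear interpolation of the resulting dose-response curve. TGI denotes the concentration required for complete inhibition of growth.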
Key:
Experiment in all cases: inhibition of tumour cell growth, NCI panel, 48 h
[1] = test system: SNB-19 CNS
[2] = test system: TK-10 renal
[3] = test system: CCRF-CEM leukemia
[4] = test system: MCF7 breast
[5] = test system: A549 NSCLC
[6] = test system: IGROV1 ovarian
[7] = test system: CAKI-1 renal
[8] = test system: EKVX NSCLC
[9] = test system: MDA-MB-231 breast
[10] = test system: NCI-H522 lung
[11] = test system: SR leukemia
[12] = test system: U251 CNS
[13] = test system: MDA-N
[14] = test system: PC-3 prostate
[15] = test system: M14 melanoma
[16] = test system: HOP-62 NSCLC
[17] = test system: NCI/ADR-RES ovarian
[18] = test system: MDA-MB-435
[19] = test system: HOP-92 NSCLC
[20] = test system: SN12C renal
[21] = test system: COLO 205 colon
[22] = test system: HT29 colon
[23] = test system: HCC-2998 colon
[24] = test system: T-47D breast
[25] = test system: SW-620 colon
[26] = test system: A498 renal
[27] = test system: MALME-3M melanoma
[28] = test system: DU-145 prostate
[29] = test system: NCI-H226 lung
[30] = test system: SK-OV-3 ovarian
[31] = test system: BT-549 breast
[32] = test system: NCI-H460 lung
[33] = test system: OVCAR-3 ovarian
[34] = test system: K-562 leukemia
[35] = test system: SF-295 CNS
[36] = test system: RPMI-8226 leukemia
[37] = test system: SK-MEL-5 melanoma
[38] = test system: HCT-15 colon
[39] = test system: 786-0 renal
[40] = test system: ACHN renal
[41] = test system: LOX IMVI melanoma
[42] = test system: UACC-62 melanoma
[43] = test system: OVCAR-8 ovarian
[44] = test system: HS 578T breast
[45] = test system: SNB-75 CNS
[46] = test system: SK-MEL-28 melanoma
[47] = test system: HCT-116 colon
[48] = test system: NCI-H23 lung
[49] = test system: OVCAR-4 ovarian
[50] = test system: MOLT-4 leukemia
[51] = test system: SF-268 CNS
[52] = test system: UO-31 renal
[53] = test system: RXF 393 renal
[54] = test system: HL-60(TB) leukemia
[55] = test system: SF-539 CNS
[56] = test system: SK-MEL-2 melanoma
[57] = test system: UACC-257 melanoma
[58] = test system: OVCAR-5 ovarian
[59] = test system: KM12 colon

## CC(=O)OCc1cn(S(=O)(=O)c2ccc(C)cc2)cn1
[1]
  TGI: > 100 µM
[2]
  TGI: > 100 µM
[3]
  TGI: > 100 µM
[4]
  TGI: > 100 µM
[5]
  TGI: > 100 µM
[6]
  TGI: > 100 µM
[7]
  TGI: > 100 µM
[8]
  TGI: > 100 µM
[9]
  TGI: > 100 µM
[10]
  TGI: > 100 µM
[11]
  TGI: > 100 µM
[12]
  TGI: > 100 µM
[13]
  TGI: 52.6 µM
[14]
  TGI: > 100 µM
[15]
  TGI: > 100 µM
[16]
  TGI: > 100 µM
[17]
  TGI: > 100 µM
[18]
  TGI: > 100 µM
[19]
  TGI: > 100 µM
[20]
  TGI: > 100 µM
[21]
  TGI: > 100 µM
[22]
  TGI: > 100 µM
[23]
  TGI: > 100 µM
[24]
  TGI: > 100 µM
[25]
  TGI: > 100 µM
[26]
  TGI: > 100 µM
[27]
  TGI: > 100 µM
[28]
  TGI: > 100 µM
[29]
  TGI: > 100 µM
[30]
  TGI: > 100 µM
[31]
  TGI: > 100 µM
[32]
  TGI: > 100 µM
[33]
  TGI: 85.9 µM
[34]
  TGI: > 100 µM
[35]
  TGI: > 100 µM
[36]
  TGI: > 100 µM
[37]
  TGI: > 100 µM
[38]
  TGI: > 100 µM
[39]
  TGI: > 100 µM
[40]
  TGI: > 100 µM
[41]
  TGI: > 100 µM
[42]
  TGI: > 100 µM
[43]
  TGI: > 100 µM
[44]
  TGI: > 100 µM
[45]
  TGI: > 100 µM
[46]
  TGI: > 100 µM
[47]
  TGI: > 100 µM
[48]
  TGI: > 100 µM
[49]
  TGI: > 100 µM
[50]
  TGI: > 100 µM
[51]
  TGI: 97.5 µM
[52]
  TGI: > 100 µM
[53]
  TGI: > 100 µM
[54]
  TGI: > 100 µM
[55]
  TGI: > 100 µM

## CCCCCC(/C=N/N)C(O)(C(F)(F)F)C(F)(F)F (configuration not stated)
[1]
  TGI: > 10 µM
[2]
  TGI: > 10 µM
[3]
  TGI: > 10 µM
[4]
  TGI: > 10 µM
[5]
  TGI: > 10 µM
[6]
  TGI: > 10 µM
[7]
  TGI: 6.02 µM
[56]
  TGI: > 10 µM
[8]
  TGI: 7.3 µM
[9]
  TGI: > 10 µM
[10]
  TGI: > 10 µM
[11]
  TGI: > 10 µM
[12]
  TGI: > 10 µM
[13]
  TGI: > 10 µM
[14]
  TGI: 6.82 µM
[15]
  TGI: > 10 µM
[16]
  TGI: > 10 µM
[17]
  TGI: > 10 µM
[18]
  TGI: > 10 µM
[57]
  TGI: > 10 µM
[19]
  TGI: 6.36 µM
[58]
  TGI: > 10 µM
[20]
  TGI: > 10 µM
[21]
  TGI: 3.4 µM
[22]
  TGI: > 10 µM
[23]
  TGI: > 10 µM
[24]
  TGI: > 10 µM
[25]
  TGI: > 10 µM
[26]
  TGI: 7.95 µM
[27]
  TGI: 6.69 µM
[28]
  TGI: 6.09 µM
[29]
  TGI: 8.63 µM
[30]
  TGI: > 10 µM
[31]
  TGI: 9.27 µM
[32]
  TGI: 8.03 µM
[33]
  TGI: > 10 µM
[35]
  TGI: 8.6 µM
[36]
  TGI: > 10 µM
[37]
  TGI: 3.92 µM
[59]
  TGI: > 10 µM
[38]
  TGI: 9.54 µM
[39]
  TGI: > 10 µM
[40]
  TGI: > 10 µM
[41]
  TGI: 9.49 µM
[42]
  TGI: > 10 µM
[43]
  TGI: > 10 µM
[44]
  TGI: 7.12 µM
[45]
  TGI: 9.63 µM
[46]
  TGI: 7.43 µM
[47]
  TGI: 9.02 µM
[48]
  TGI: 9.49 µM
[49]
  TGI: > 10 µM
[50]
  TGI: > 10 µM
[51]
  TGI: 5.92 µM
[53]
  TGI: > 10 µM
[54]
  TGI: > 10 µM
[55]
  TGI: > 10 µM

— PubChem BioAssay (NCI)
